# Measurements taken from article PMC7377239, “Cardiovascular Effects of Polychlorinated Biphenyls and Their Major Metabolites” (Environmental Health Perspectives, 2020).
# Where two headings read alike, the source gives them in different places.
# Key:
# [1] = tested on: iCell cardiomyocytes (human iPSC-derived cardiomyocytes); assay: High-content imaging of cytotoxicity and mitochondrial integrity in iPSC-CMs; format: cell-based; settings: Homo sapiens, Cardiomyocyte; for viability at 0.01 µM / activity at 0.01 µM / viability at 0.1 µM / activity at 0.1 µM / viability at 1 µM / activity at 1 µM / viability at 10 µM / activity at 10 µM / viability at 100 µM / activity at 100 µM: 0.00 µM = 100.00; for viability at 0.1 µM / activity at 0.1 µM: 0.10 µM
# Procedure, shortened: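 Cardiomyocytes grown on gelatinized 384-well plates received fresh medium on the experiment day and were then exposed to chemicals at 0.01–100μM. Nuclei and mitochondria were labeled with Hoechst 33342 and MitoTracker™ Orange, then fixed, and imaged on an ImageXpress® Micro Confocal system. Four-parameter logistic concentration–response fits in R, with a one-standard-deviation vehicle cutoff, gave point-of-departure values.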
# HUVECs = assay: High-content imaging cytotoxicity in HUVECs, 24 h; format: cell-based, human; settings: Homo sapiens, HUVEC, 24 h, HUVECs; for viability at 0.01 µM / activity at 0.01 µM / viability at 0.1 µM / activity at 0.1 µM / viability at 1 µM / activity at 1 µM / viability at 10 µM / activity at 10 µM / viability at 100 µM / activity at 100 µM: 0.00 µM = 100.00; for viability at 0.1 µM / activity at 0.1 µM: 0.10 µM; for minimal effective concentration: top concentration 100.00 µM
# Procedure, shortened: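 Confluent HUVEC monolayers, passages 1–5, received test chemicals for 24 h. Cytotoxicity was scored from triple-stain high-content images, with PODs defined by a one-SD deviation from 0.5% DMSO vehicle controls.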
# [2] = 1.5 h, 90min, read-out: cm.cam.90min
# [3] = 1.5 h, 90min, read-out: cm.mii.90min
# [4] = 1.5 h, 90min, read-out: cm.mito.90min
# [5] = 1.5 h, 90min, read-out: cm.tc.90min
# [6] = 24 h, 24hrs, read-out: cm.cam.24hrs
# [7] = 24 h, 24hrs, read-out: cm.mii.24hrs
# [8] = 24 h, 24hrs, read-out: cm.mito.24hrs
# [9] = 24 h, 24hrs, read-out: cm.tc.24hrs
# [10] = 24 hr, read-out: huvec.cyto.24hr
# [11] = 24 hr, read-out: huvec.mito.24hr
# [12] = 24 hr, read-out: huvec.mitoint.24hr
# [13] = 24 hr, read-out: huvec.nma.24hr
# [14] = 24 hrs, read-out: huvec.tc.24hrs
compound,measurement,setting,value
Oc1cc(Cl)c(-c2cc(Cl)ccc2Cl)cc1Cl [4-OH PCB52],viability at 0.01 µM,[1]; [2],89.4%
same,activity at 0.01 µM,[1]; [3],103%
same,activity at 0.01 µM,[1]; [4],87.5%
same,viability at 0.01 µM,[1]; [5],89.4%
same,viability at 0.1 µM,[1]; [2],103%
same,activity at 0.1 µM,[1]; [3],101%
same,activity at 0.1 µM,[1]; [4],103%
same,viability at 0.1 µM,[1]; [5],104%
same,viability at 1 µM,[1]; [2],97.9%
same,activity at 1 µM,[1]; [3],97.3%
same,activity at 1 µM,[1]; [4],97.9%
same,viability at 1 µM,[1]; [5],98.1%
same,viability at 10 µM,[1]; [2],95.1%
same,activity at 10 µM,[1]; [3],116%
same,activity at 10 µM,[1]; [4],94.7%
same,viability at 10 µM,[1]; [5],94.9%
same,viability at 100 µM,[1]; [2],0%
same,activity at 100 µM,[1]; [3],7.54%
same,activity at 100 µM,[1]; [4],0.0231%
same,viability at 100 µM,[1]; [5],0.0461%
same,minimal effective concentration,"[1]; 1.5 h, 90min, read-out: cm.cam.90min POD",8.86 µM
same,minimal effective concentration,"[1]; 1.5 h, 90min, read-out: cm.mii.90min POD",45.7 µM
same,minimal effective concentration,"[1]; 1.5 h, 90min, read-out: cm.mito.90min POD",8.61 µM
same,minimal effective concentration,"[1]; 1.5 h, 90min, read-out: cm.tc.90min POD",8.75 µM
same,viability at 0.01 µM,[1]; [6],99.2%
same,activity at 0.01 µM,[1]; [7],98.8%
same,activity at 0.01 µM,[1]; [8],99.4%
same,viability at 0.01 µM,[1]; [9],99.5%
same,viability at 0.1 µM,[1]; [6],102%
same,activity at 0.1 µM,[1]; [7],93.3%
same,activity at 0.1 µM,[1]; [8],104%
same,viability at 0.1 µM,[1]; [9],103%
same,viability at 1 µM,[1]; [6],96.1%
same,activity at 1 µM,[1]; [7],102%
same,activity at 1 µM,[1]; [8],94.1%
same,viability at 1 µM,[1]; [9],96%
same,viability at 10 µM,[1]; [6],101%
same,activity at 10 µM,[1]; [7],88.3%
same,activity at 10 µM,[1]; [8],102%
same,viability at 10 µM,[1]; [9],101%
same,viability at 100 µM,[1]; [6],10.2%
same,activity at 100 µM,[1]; [7],193%
same,activity at 100 µM,[1]; [8],20.3%
same,viability at 100 µM,[1]; [9],49.7%
same,minimal effective concentration,"[1]; 24 h, read-out: cm.cam.24hrs POD",32.7 µM
same,minimal effective concentration,"[1]; 24 h, read-out: cm.mii.24hrs POD",65.1 µM
same,minimal effective concentration,"[1]; 24 h, read-out: cm.mito.24hrs POD",36.7 µM
same,minimal effective concentration,"[1]; 24 h, read-out: cm.tc.24hrs POD",41.4 µM
same,viability at 0.01 µM,HUVECs; [10],94.4%
same,activity at 0.01 µM,HUVECs; [11],93.5%
same,activity at 0.01 µM,HUVECs; [12],103%
same,activity at 0.01 µM,HUVECs; [13],98.9%
same,viability at 0.1 µM,HUVECs; [10],120%
same,activity at 0.1 µM,HUVECs; [11],118%
same,activity at 0.1 µM,HUVECs; [12],104%
same,activity at 0.1 µM,HUVECs; [13],94.5%
same,viability at 1 µM,HUVECs; [10],93.9%
same,activity at 1 µM,HUVECs; [11],93.9%
same,activity at 1 µM,HUVECs; [12],111%
same,activity at 1 µM,HUVECs; [13],98%
same,viability at 10 µM,HUVECs; [10],46.9%
same,activity at 10 µM,HUVECs; [11],33.2%
same,activity at 10 µM,HUVECs; [12],15.3%
same,activity at 10 µM,HUVECs; [13],61.6%
same,viability at 100 µM,HUVECs; [10],72%
same,activity at 100 µM,HUVECs; [11],0.65%
same,activity at 100 µM,HUVECs; [12],5.52%
same,activity at 100 µM,HUVECs; [13],119%
same,minimal effective concentration,"HUVECs; 24 hr, read-out: huvec.cyto.24hr POD",1 µM
same,minimal effective concentration,"HUVECs; 24 hr, read-out: huvec.mito.24hr POD",1.1 µM
same,minimal effective concentration,"HUVECs; 24 hr, read-out: huvec.mitoint.24hr POD",2.32 µM
same,minimal effective concentration,"HUVECs; 24 hr, read-out: huvec.nma.24hr POD",100 µM
same,viability at 0.01 µM,HUVECs; [14],94.4%
same,viability at 0.1 µM,HUVECs; [14],120%
same,viability at 1 µM,HUVECs; [14],93.9%
same,viability at 10 µM,HUVECs; [14],46.9%
same,viability at 100 µM,HUVECs; [14],77.5%
same,minimal effective concentration,"HUVECs; 24 hrs, read-out: huvec.tc.24hrs POD",1 µM
